# Data from PubChem BioAssay (NCI).
#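 Step 1: Grow cells in 96-well plates. Step 2: Expose to compound for 48 hours at 5 concentrations. Step 3: Interpolate endpoints linearly; if unreached, use highest concentration. TGI: concentration producing complete growth inhibition.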 Where a SMILES comes first, the peptide text is derived from it. Bridges are numbered along the chain shown (N, C = ends). [ ]: non-standard residue; d: D form. The star is where a group is joined. ξ: configuration not given here. Cbz = O=C(OCc1ccccc1)*; ξD = NC(CC(=O)O)C(=O)O; Ac3c = NC1(C(=O)O)CC1; Boc = CC(C)(C)OC(=O)*; OtBu = CC(C)(C)O*
# Assays:
# Assay in all cases: DTP human tumour cell line panel, 48 h
# MDA-MB-435 = test system: MDA-MB-435
# SF-539 CNS = test system: SF-539 CNS
# SNB-19 CNS = test system: SNB-19 CNS
# SK-MEL-2 melanoma = test system: SK-MEL-2 melanoma
# SF-268 CNS = test system: SF-268 CNS
# A498 renal = test system: A498 renal
# TK-10 renal = test system: TK-10 renal
# CCRF-CEM leukemia = test system: CCRF-CEM leukemia
# EKVX NSCLC = test system: EKVX NSCLC
# SK-MEL-5 melanoma = test system: SK-MEL-5 melanoma
SMILES,TGI (MDA-MB-435) [µM],TGI (SF-539 CNS) [µM],TGI (SNB-19 CNS) [µM],TGI (SK-MEL-2 melanoma) [µM],TGI (SF-268 CNS) [µM],TGI (A498 renal) [µM],TGI (TK-10 renal) [µM],TGI (CCRF-CEM leukemia) [µM],TGI (EKVX NSCLC) [µM],TGI (SK-MEL-5 melanoma) [µM]
CC(C)C(C/C=C1/CC(CO)(COC(=O)C2CCCCC2)OC1=O)C(C)C (stereo not given),> 100,29.1,29.8,> 100,33.8,76.2,37.4,63.2,42.8,> 100
Cc1ccc(N=C2SC(c3ccc(C)cc3)(c3ccc(C)cc3)c3ccccc32)cc1,> 100,> 100,> 100,> 100,> 100,> 100,> 100,> 100,> 100,> 100
COc1ccc2c(-c3ccc(OCCN(C)C)cc3)c(Oc3ccc(Cl)cc3)c(=O)oc2c1,8.66,> 30.8,33.6,19.1,32.9,29.4,26.4,23.1,26.2,3.19
Cc1ccc(S(=O)(=O)c2ccc([N+](=O)[O-])o2)cc1,3.69,3.34,40.4,28.7,46.6,33.9,3.04,1.21,7.79,23
O=C1NC2CCCCC2N=C1/C(C(=O)c1ccccc1)=C(\O)c1ccccc1 (stereo not given),> 100,> 100,> 100,> 100,> 100,> 100,> 100,84.7,> 100,> 100
CC(C)(C)c1cc(C(=O)/C=C/c2ccn[nH]2)cc(C(C)(C)C)c1O,8.34,9.07,9.91,3.43,6.39,6.25,2.92,5.97,28.4,20.1
COC(=O)C1(NC(=O)C(CC(=O)OC(C)(C)C)NC(=O)OC(C)(C)C)CC1 (stereo not given) (Boc-[ξD](OtBu)-[Ac3c]-OMe),> 100,> 100,> 100,> 100,> 100,> 100,> 100,> 100,> 100,> 100
Oc1ccc(Cl)cc1C1=N/C(=N\C/N=C2\N=C(c3cc(Cl)ccc3O)CC(c3ccccc3)N2)NC(c2ccccc2)C1 (stereo not given),> 100,> 100,> 100,> 100,> 100,> 100,> 100,> 100,> 100,> 100
COC(=O)C1CCCCNC(=O)CCC(NC(=O)OCc2ccccc2)C(=O)N1 (stereo not drawn) (Cbz-Glu-Lys-OMe; lactam 1-2; configuration not given here),> 100,> 100,> 100,> 100,> 100,> 100,> 100,> 100,> 100,> 100
CC1(C)CCCCCCCCCC(C)(CCCCCCCCCCCCO)C1=O (stereo not given),33,32.5,26.1,32.7,32,35.7,31.6,50.7,34.8,35.3
N=C(N)SCCCN,14,30.9,> 82.7,32.2,79.2,> 100,20.7,9.2,> 91.4,30.1
c1csc(-c2csc(-c3ccsc3)c2)c1,> 100,98.6,> 100,> 100,> 100,> 100,> 100,> 100,> 100,> 100
O=C(/C=C(\O)c1ccccc1)/C(=C/C(=O)c1ccccc1)NN=C(c1ccccc1)c1ccccc1,> 100,> 100,> 100,84.2,> 100,> 100,97.6,54.7,> 100,43
COc1nc(OC)nc(-c2cccc(F)c2)n1,31,32.5,32.4,38.6,32,34.1,33.1,> 100,18.6,29.8
C=C(Br)CNCC(=C)Br,> 100,> 100,> 100,> 100,> 100,> 100,> 100,> 100,> 100,> 100
O=S1(=O)C(c2ccccc2)=C(O)c2ccccc21,> 100,> 100,> 100,> 100,> 100,> 100,> 100,> 100,> 100,> 100
Cc1ccnc(NC(=S)Nc2cccc(Cl)c2)c1,> 100,> 100,> 100,> 100,> 100,> 100,> 100,> 100,> 100,> 100
